Laboratory results reported in patent US12558363B2, “Compositions for clinical complications associated to devices implanted in the urinary tract” (Devicare SL, priority 2019, dated 2026).
Values joined by “and” are separate entries in the source; they are usually repeats but may differ in a detail not shown here. Equal entries are not always repeated. “Also recorded” adds a separate entry of the source.

Key:
[1] = tested on: Mucin; assay: Conditioning film generation: accumulated protein on medical device fragment in continuous flow artificial urine system (Lowry); conditions: for Quantity of accumulated protein (Mucin), Experiment 1 / Quantity of accumulated protein (Mucin), Experiment 2: 48 hours irrigation of Tygon fragment, pH 6.5; for Quantity of accumulated protein (Mucin), Experiment 1 / Quantity of accumulated protein (Mucin), Experiment 2 / Quantity of accumulated protein (Mucin), Average: NAC 20 mg/L and/or phytate 2 ppm; for Quantity of accumulated protein (Mucin), Average: average of Experiments 1 and 2, 48 hours; for Reduction in the precipitation of protein, compounds tested individually: phytate 2 ppm or NAC 20 mg/L alone, compared with the combination
[2] = Struvite crystal formation/adhesion on catheter portions in artificial urine; conditions: for Struvite crystals formation ratio (crystals without phytate divided by crystals with phytate) / # struvite crystals with phytate (2 ppm): phytate 2 ppm; for # struvite crystals with phytate (2 ppm): pH 7.2, 37° C., not washed catheter portion
[3] = tested on: Pseudomonas aeruginosa PAO1; assay type: cell-based; conditions: 24 h

Row | SMILES | Quantity of accumulated protein (Mucin), Experiment 1 [1] [mg/L] | Quantity of accumulated protein (Mucin), Experiment 2 [1] [mg/L] | Quantity of accumulated protein (Mucin), Average [1] [mg/L] | Reduction in the precipitation of protein, compounds tested individually [1] | Struvite crystals adhered in catheters ([2]; 9.28 g/L NH4+, 1 ppm phytate (FIG. 3B)) [crystals] | Struvite crystals adhered in catheters ([2]; 18.56 g/L NH4+, 1 ppm phytate (FIG. 3D)) [crystals] | Size of struvite crystals formed (electron microscopy) ([2]; 24 h) | Struvite crystals formation ratio (crystals without phytate divided by crystals with phytate) ([2]; time of reaction 12 hours) | # struvite crystals with phytate (2 ppm) ([2]; time of reaction 12 hours) | Struvite crystals formation ratio (crystals without phytate divided by crystals with phytate) ([2]; time of reaction 24 hours) | # struvite crystals with phytate (2 ppm) ([2]; time of reaction 24 hours) | Number of adhered bacteria in the surface of incubated catheters [3]
1 | CC(=O)N[C@@H](CS)C(=O)O [NAC, N-acetylcysteine, reference compound] | 30.0 | 66.5 | 48.3 | a reduction in the precipitation was observed but of less intensity | – | – | – | – | – | – | – | –
2 | O=P(O)(O)O[C@H]1[C@H](OP(=O)(O)O)[C@@H](OP(=O)(O)O)[C@H](OP(=O)(O)O)[C@@H](OP(=O)(O)O)[C@H]1OP(=O)(O)O [phytate, myo-inositol-hexaphosphate] | 33.0 | 57.5 | 45.3 | a reduction in the precipitation was observed but of less intensity | 2 | 5 | smaller than the crystals formed in absence of phytate | 1.45 | 20 | 3.85 and 2.4 | 6.5 and 5 | significative decrease; also recorded: lower
